Laboratory results published in patent publication US20230138395A1, “PHARMACEUTICAL COMPOSITIONS OF A THERAPEUTIC POLYENE MACROLIDE AND METHODS OF THEIR USE” (priority 2020, published 2023).
In brackets after ≈: the same amount, converted by molar mass. Several values for one entry are separate records, joined by “and”; a condition that tells them apart may be missing. Equal values may be shown once.

Experiments:
Candida albicans SC5314 = assay: Disseminated candidiasis in immunocompromised murine model (BALB/c mice): tissue fungal burden; assay type: in vivo; details: Experiment I; 4 mg/kg i.v. twice a day, 7 days
all Candida strains [1] = assay: MIC testing (CLSI M27-A3), summary; assay type: cell-based
[2] = system: all Aspergillus strains tested; assay: MFC determination, summary; assay type: cell-based
A. fumigatus AF91 [3] = assay: In vitro activity (MFC) against the infecting strain, Example 17; assay type: cell-based, Aspergillus fumigatus; details: Aspergillus fumigatus, read-out: MFC
Method: Minimum Fungicidal Concentration: MFC determinations were performed according to the modifications previously described by Canton et al., Diagn. Microbiol. Infect. Dis., 45:203-206, 2003, and Ghannoum and Isham, Infectious Diseases in Clinical Practice, 15(4):250-253, 2007.
Specifically, the total contents of each clear well from the MIC assay were subcultured onto potato dextrose agar. To avoid antifungal carryover, the aliquots were allowed to soak into the agar and then were streaked for isolation once dry, thus removing the cells from the drug source. Fungicidal activity is defined as ≥99.9% reduction in the number of colony forming units (CFU)/ml from the starting inoculum count, while fungistatic activity is defined as <99.9% reduction. […] MIC and MFC values are considered to be equivalent if they are within 2 dilutions.

C. krusei strains [4] = assay: MIC testing (CLSI M27-A3); assay type: cell-based
C. parapsilosis [5] = assay: MFC determination; assay type: cell-based
A. fumigatus AF91 [6] = assay: In vitro activity (MIC) against the infecting strain, Example 17; assay type: cell-based, Aspergillus fumigatus; details: Aspergillus fumigatus, read-out: MIC
Method: Minimum Inhibitory Concentration: MIC testing was performed according to the Clinical and Laboratory Standards Institute (CLSI) M27-A3 and M38-A2 standards for the susceptibility testing of yeasts and filamentous fungi, respectively (Cryptococcus isolates were incubated for 72 h). For yeast strains, the incubation temperature and time were 35° C. and 24-48 h, respectively, and the inoculum size was 0.5-2.5×10^3 CFU/ml. For filamentous strains, the inoculum size was 0.4-5×10^4 CFU/ml, and the incubation time was strain and drug specific. RPMI 1640 was the test medium throughout, with the exception of the use of YNB for Cryptococcus. Inhibition endpoints for compound 1A were recorded at 50% and 100% after both 24 h and 48 h incubation; caspofungin results against Aspergillus strains were read as minimum effective concentrations (MEC), the lowest concentration that leads to small, rounded, compact growth as compared to the confluent growth of the control.

Penicillium strains = assay: MFC determination; assay type: cell-based, Penicillium spp.
[7] = system: Aspergillus fumigatus AF91; assay: Disseminated Aspergillosis in immunocompromised murine model (CD-1 mice): tissue fungal burden; details: Experiment I; 7.5 mg/kg i.v., 7 days
Fusarium strains [8] = assay: MFC determination, Table 17; assay type: cell-based, Fusarium spp.; details: Fusarium strains (Table 17)
C. parapsilosis [9] = assay: MIC testing (CLSI M27-A3); assay type: cell-based; design: MIC: unit not given beside the values
[10] = system: individual Aspergillus spp. (Table 15, species not named); assay: MFC determination, Table 15; assay type: cell-based; details: Aspergillus sp. of Table 15
[11] = system: individual Aspergillus spp. (Table 13, species not given); assay: MFC determination, Table 13; assay type: cell-based; details: Aspergillus sp. of Table 13
Cr. neoformans strains = assay: MFC determination; assay type: cell-based, Cryptococcus neoformans; details: Cr. neoformans
[12] = system: individual Aspergillus spp. (Table 12, species not named); assay: MFC determination, Table 12; assay type: cell-based; details: Aspergillus sp. of Table 12
[13] = system: individual Aspergillus spp. (Table 12, species not named); assay: MIC testing (CLSI M38-A2), Table 12; assay type: cell-based; details: Aspergillus sp. of Table 12, caspofungin read as MEC
Candida albicans = assay: MIC testing (CLSI M27-A3); assay type: cell-based; design: MIC: unit not given beside the values
C. krusei strains [14] = assay: MFC determination; assay type: cell-based; details: C. krusei
all Candida strains [15] = assay: MFC determination, summary; assay type: cell-based
Fusarium strains [16] = assay: MIC testing (CLSI M38-A2), Table 17; assay type: cell-based, Fusarium spp.; details: Fusarium strains (Table 17)
C. albicans SC5314 = assay: In vitro activity (MIC) against the infecting strain, Example 18; assay type: cell-based, Candida albicans; details: Candida albicans, read-out: MIC
[17] = system: all Aspergillus strains tested; assay: MIC testing (CLSI M38-A2), summary; assay type: cell-based; details: caspofungin read as MEC

Question: With C[C@@H](c1ncncc1F)[C@](O)(Cn1cncn1)c1ccc(F)cc1F [Voriconazole, voriconazole] as the compound, how does the “Brain tissue fungal burden, Mean log CFUs ± the standard deviation” value (Candida albicans SC5314) read?
Answer: 3.42 ± 2.30 log CFUs

Question: What about the “Kidney tissue fungal burden, Mean log CFUs ± the standard deviation” value (Candida albicans SC5314) of the same compound?
Answer: 3.45 ± 1.15 log CFUs

Question: What about the MIC50 (all Candida strains [1]; inhibits 50% of strains) of the same compound?
Answer: 0.06 µg/mL (≈ 0.172 µM)

Question: What about the MIC90 (all Candida strains [1]; inhibits 90% of strains) of the same compound?
Answer: 1 µg/mL (≈ 2.86 µM)

Question: What about the MFC50 ([2]; kills 50% of strains) of the same compound?
Answer: > 8 µg/mL

Question: What about the MFC90 ([2]; kills 90% of strains) of the same compound?
Answer: > 8 µg/mL

Question: And the MFC (A. fumigatus AF91 [3])?
Answer: > 8 µg/mL

Question: What about the “MIC Range” value (C. krusei strains [4]; C. krusei strains, in µg/mL) of the same compound?
Answer: <0.06-0.5

Question: And the MIC50 (C. krusei strains [4]; C. krusei, inhibits 50% of strains)?
Answer: 0.125 µg/mL (≈ 0.358 µM)

Question: What about the MIC90 (C. krusei strains [4]; C. krusei, inhibits 90% of strains) of the same compound?
Answer: 0.25 µg/mL (≈ 0.716 µM)

Question: And the MFC50 (C. parapsilosis [5]; C. parapsilosis, kills 50% of strains)?
Answer: > 32 µg/mL

Question: And the MFC90 (C. parapsilosis [5]; C. parapsilosis, kills 90% of strains)?
Answer: > 32 µg/mL

Question: And the MFC (C. parapsilosis [5]; individual C. parapsilosis strain with elevated MICs to non-polyene comparators (Table 22), in µg/mL)?
Answer: >32

Question: What about the MIC (A. fumigatus AF91 [6]) of the same compound?
Answer: 1 µg/mL (≈ 2.86 µM)

Question: And the MFC50 (Penicillium strains; kills 50% of strains)?
Answer: > 32 µg/mL

Question: And the MFC90 (Penicillium strains; kills 90% of strains)?
Answer: > 32 µg/mL

Question: What about the “Kidney tissue fungal burden, Mean log CFUs ± the standard deviation” value [7] of the same compound?
Answer: 3.19 ± 0.59 log CFUs

Question: And the “Lung tissue fungal burden, Mean log CFUs ± the standard deviation” value [7]?
Answer: 3.38 ± 0.45 log CFUs

Question: What about the MFC50 (Fusarium strains [8]; kills 50% of strains) of the same compound?
Answer: 32 µg/mL (≈ 91.6 µM)

Question: And the MFC90 (Fusarium strains [8]; kills 90% of strains)?
Answer: > 32 µg/mL

Question: What about the MIC50 (C. parapsilosis [9]; C. parapsilosis, inhibits 50% of strains) of the same compound?
Answer: < 0.06 µg/mL

Question: And the MIC90 (C. parapsilosis [9]; C. parapsilosis, inhibits 90% of strains)?
Answer: 0.06 µg/mL (≈ 0.172 µM)

Question: What about the MIC (C. parapsilosis [9]; individual C. parapsilosis strain with elevated MICs to non-polyene comparators (Table 22), listed as Vor) of the same compound?
Answer: 0.06 (2×) and >32

Question: What about the MFC50 ([10]; kills 50% of strains) of the same compound?
Answer: > 4 µg/mL

Question: And the MFC90 ([10]; kills 90% of strains)?
Answer: > 4 µg/mL

Question: And the MFC50 ([11]; kills 50% of strains)?
Answer: 8 µg/mL (≈ 22.9 µM)

Question: What about the MFC90 ([11]; kills 90% of strains) of the same compound?
Answer: > 8 µg/mL

Question: And the MFC50 (Cr. neoformans strains; kills 50% of strains)?
Answer: > 0.5 µg/mL

Question: And the MFC90 (Cr. neoformans strains; kills 90% of strains)?
Answer: > 0.5 µg/mL

Question: What about the MFC50 ([12]; kills 50% of strains) of the same compound?
Answer: 4 µg/mL (≈ 11.5 µM)

Question: What about the MFC90 ([12]; kills 90% of strains) of the same compound?
Answer: > 16 µg/mL

Question: And the “MIC Range” value ([13]; in µg/mL)?
Answer: 0.25-4

Question: What about the MIC50 ([13]; inhibits 50% of strains) of the same compound?
Answer: 1 µg/mL (≈ 2.86 µM)

Question: What about the MIC90 ([13]; inhibits 90% of strains) of the same compound?
Answer: 2 µg/mL (≈ 5.73 µM)

Question: And the “MIC Range” value (Candida albicans; Fluconazole-susceptible C. albicans n = 13, in µg/mL)?
Answer: <0.06-0.06

Question: And the MIC50 (Candida albicans; Fluconazole-susceptible C. albicans n = 13, inhibits 50% of strains)?
Answer: 0.6 µg/mL (≈ 1.72 µM)

Question: What about the MIC90 (Candida albicans; Fluconazole-susceptible C. albicans n = 13, inhibits 90% of strains) of the same compound?
Answer: 0.06 µg/mL (≈ 0.172 µM)

Question: What about the MIC (Candida albicans; individual C. albicans strain with elevated MICs to non-polyene comparators (Table 22), listed as Vor, in µg/mL) of the same compound?
Answer: >0.06 and 0.5 and 32

Question: And the MFC50 (C. krusei strains [14]; kills 50% of strains)?
Answer: > 8 µg/mL

Question: And the MFC90 (C. krusei strains [14]; kills 90% of strains)?
Answer: > 8 µg/mL

Question: What about the MFC50 (all Candida strains [15]; kills 50% of strains) of the same compound?
Answer: > 32 µg/mL

Question: And the MFC90 (all Candida strains [15]; kills 90% of strains)?
Answer: > 32 µg/mL

Question: What about the MIC50 (Fusarium strains [16]; inhibits 50% of strains) of the same compound?
Answer: 16 µg/mL (≈ 45.8 µM)

Question: What about the MIC90 (Fusarium strains [16]; inhibits 90% of strains) of the same compound?
Answer: > 32 µg/mL

Question: And the MIC (C. albicans SC5314)?
Answer: 0.008 µg/mL (≈ 0.0229 µM)

Question: What about the “MIC Range” value ([17]; in µg/mL) of the same compound?
Answer: 0.06-8

Question: What about the MIC50 ([17]; inhibits 50% of strains) of the same compound?
Answer: 0.5 µg/mL (≈ 1.43 µM)

Question: What about the MIC90 ([17]; inhibits 90% of strains) of the same compound?
Answer: 2 µg/mL (≈ 5.73 µM)
